Data set [1] has as its system AP. Conditions: multiple in vitro and in vivo non-clinical studies (Schubart 2019); cited from earlier work.
Data set [2] deals with AP activity (Wieslab). Description: First in human (FIH) studies: suppression of AP activity (Wieslab). In kind it is in vivo.
In data set [3] the test system is organic anion-transporting polypeptide (OATP) hepatic uptake transporter. As to the kind of experiment: Preclinical studies of systemic disposition: hepatic uptake transporter. In kind it is in vitro ADME. From the text: In addition, some contribution from direct kidney (approximately 20%) and direct biliary excretion (around 5 to 10%) is anticipated. Iptacopan is also a substrate for the organic anion-transporting polypeptide (OATP) hepatic uptake transporter. […] Typical examples are digoxin, quinidine, paclitaxel, fentanyl and phenytoin. However, if no alternative treatment is available, a staggered dosing approach is recommended (refer to Section 6.2.1.1). • · Concomitant medication listed under exclusion criteria 25 and 26 is prohibited except for the condition specified in the criterion.

A short description of data set [4]: Human absorption, distribution, metabolism, and excretion (ADME) study in healthy volunteers. Type of data set: in vivo.
A short description of data set [5]: Food effect in study CLNP023X2101. In kind it is in vivo.

As to `CCO[C@H]1CCN(Cc2c(OC)cc(C)c3[nH]ccc23)[C@H](c2ccc(C(=O)O)cc2)C1` [iptacopan, 4-((2S,4S)-(4-ethoxy-1-((5-methoxy-7-methyl-1H-indol-4-yl)methyl)piperidin-2-yl))benzoic acid], the “inhibition of the AP” value in data set [1] is “demonstrated inhibition of the AP”. For the same compound, in data set [2] (about 200 mg b.i.d, in most participants, model developed with FIH data in healthy volunteers), the “inhibition of the AP (Wieslab assay) predicted by exposure-response model” value is recorded as over 90%. Also, the “suppression of the AP (inhibition), sustained” value in data set [2] (over 14 days of dosing at 200 mg b.i.d) is recorded as at least 80%. Moreover, the “inhibition of AP activity (Wieslab)” value in data set [2] (two hours post-dose, single dose of 200 mg, FIH study participants) is listed as at least 80%. Further, the “substrate of OATP hepatic uptake transporter” value in data set [3] is “substrate”. Moreover, in data set [4], the “direct kidney excretion, share of overall iptacopan dose” value is 20-25% and the “kidney contribution to the overall iptacopan clearance” value is listed as 20-25%. In data set [5], the food effect entry is on record as “no food effect”.

The values are drawn from US20240238266A1 (Novartis AG, priority 2021, published 2024).
